Results published in US20240382499A1, “INDUCERS OF SENESCENCE, IN COMBINATION WITH A SELECTIVE DEATH RECEPTOR 5 (DR5) AGONIST, FOR USE IN A METHOD OF TREATING CANCER” (Stichting Het Nederlands Kanker Instituut-Antoni van …, priority 2021, published 2024).
Residues, ends and D or L forms follow the SMILES beside them. *: point of attachment. Cbz = O=C(OCc1ccccc1)*; CH2F = FC*

Key:
[1] = test system: proliferating and senescent A549 cells; test: Colony formation with low dose IgA-cona-dim, NEO2734 and Z-VAD-FMK; assay type: cell-based; settings: 10 μM Z-VAD-FMK; alisertib-induced senescent A549
Protocol: (§1) FIG. 10: Colony formation in proliferating and alisertib-induced senescent A549 (A), Hep1 (B) and MM231 (C) cells with IgG1-cona or IgA-cona-dim DR5 agonist antibodies. Colony formation in proliferating and alisertib-induced senescent A549 cells treated with the low dose of 0.125 μg/ml IgA-cona-dim, 0.25 μM NEO2734 and 10 μM Z-VAD-FMK (D). Colony formation using low dose 0.25 μM of NEO2734 and 0.125 μg/ml IgA-cona-dim A549 cells made senescent by one-week treatment with 1 μM barasertib, 0.5 μM PF-06873600, 100 nM doxorubicin, 50 nM CFI-400945, 2 μM Etoposide or 1 μM TAS-119 (E).

[2] = test system: alisertib-induced senescent A549, Hep1 and MM231 cells; test: Colony formation with IgG1-cona or IgA-cona-dim DR5 agonist antibodies; assay type: cell-based; settings: side-by-side IgG1 and IgA-cona-dim forms of conatumumab
Protocol: as §1
Antibodies were generated by expression of SEQ 1 and SEQ 3 (IgG1-cona), SEQ 2 and SEQ 3 (IgA-cona), or SEQ 2, SEQ 3 and SEQ 4 (IgA-cona-dim) as described (Beyer et al., 2009. J Immunol Methods 346: 26-37), by employing the nucleotide sequences SEQ 5 and SEQ 6 (IgG1-cona), SEQ 6 and SEQ 7 (IgA-cona), or SEQ 6, SEQ 7 and SEQ 8 (IgA-cona-dim). SEQ 4 depicts a sequence of an immunoglobulin J chain, which links two or more IgA monomer units.

Molecule	rescue from IgA-cona-dim plus NEO2734 mediated senolysis [1]	senolytic potency compared with IgG form [2]
COC(=O)C[C@H](NC(=O)[C@H](C)NC(=O)[C@@H](NC(=O)OCc1ccccc1)C(C)C)C(=O)CF [Z-VAD-FMK] (Cbz-Val-Ala-Asp(OMe)-CH2F)	fully rescue the cells from senolysis	–
IgA-cona-dim: dimeric form of IgA-conatumumab, SEQ 2, SEQ 3 and SEQ 4 (J chain)	–	most potent DR5 agonist to eliminate senescent cells
